Key:
Assay in all cases: biochemical
[1] = target: T1, panel of 374 wild-type kinases (Homo sapiens, UniProt P50613); conditions: read-out: % Enzyme Activity (relative to DMSO controls), CDK7/cyclin H
T1 construct: purchased Reaction Biology Corporation

[2] = target: T2, panel of 374 wild-type kinases (Homo sapiens, UniProt Q8WTQ7); conditions: for remaining activity at 5 µM: read-out: % Enzyme Activity (relative to DMSO controls), GRK7
T2 construct: purchased Reaction Biology Corporation
T2 sequence (Q8WTQ7 1-553): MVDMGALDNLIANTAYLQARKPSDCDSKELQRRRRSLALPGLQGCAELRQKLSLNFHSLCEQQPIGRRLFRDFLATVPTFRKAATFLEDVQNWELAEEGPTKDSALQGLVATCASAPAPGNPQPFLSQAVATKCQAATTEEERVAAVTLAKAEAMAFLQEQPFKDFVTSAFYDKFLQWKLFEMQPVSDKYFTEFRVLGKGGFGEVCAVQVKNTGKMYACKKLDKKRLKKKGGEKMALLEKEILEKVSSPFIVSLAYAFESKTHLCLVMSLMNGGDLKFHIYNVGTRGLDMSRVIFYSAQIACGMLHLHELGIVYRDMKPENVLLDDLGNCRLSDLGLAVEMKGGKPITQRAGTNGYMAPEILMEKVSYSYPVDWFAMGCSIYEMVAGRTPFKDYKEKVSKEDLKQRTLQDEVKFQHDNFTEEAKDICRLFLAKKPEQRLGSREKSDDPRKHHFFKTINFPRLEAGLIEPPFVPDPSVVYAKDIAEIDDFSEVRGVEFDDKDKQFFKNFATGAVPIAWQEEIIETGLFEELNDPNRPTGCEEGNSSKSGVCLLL

[3] = target: T3, panel of 374 wild-type kinases (Homo sapiens, UniProt Q96S53); conditions: read-out: % Enzyme Activity (relative to DMSO controls), kinase TESK2
T3 construct: purchased Reaction Biology Corporation

[4] = target: T4, panel of 374 wild-type kinases (Homo sapiens, UniProt P51955); conditions: read-out: % Enzyme Activity (relative to DMSO controls), NEK2
T4 construct: purchased Reaction Biology Corporation
T4 sequence (P51955 1-445): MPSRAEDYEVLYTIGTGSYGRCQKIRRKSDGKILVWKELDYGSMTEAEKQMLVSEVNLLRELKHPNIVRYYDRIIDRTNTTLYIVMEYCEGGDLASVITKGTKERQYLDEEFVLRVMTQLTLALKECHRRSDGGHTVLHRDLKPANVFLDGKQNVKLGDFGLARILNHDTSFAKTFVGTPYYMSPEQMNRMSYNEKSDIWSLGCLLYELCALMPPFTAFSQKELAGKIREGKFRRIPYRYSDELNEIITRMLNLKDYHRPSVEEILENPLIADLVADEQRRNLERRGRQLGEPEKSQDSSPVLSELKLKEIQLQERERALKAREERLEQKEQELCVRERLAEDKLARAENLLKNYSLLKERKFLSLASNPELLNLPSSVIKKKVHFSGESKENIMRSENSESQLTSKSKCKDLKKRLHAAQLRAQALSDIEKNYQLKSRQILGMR

[5] = target: T5, panel of 374 wild-type kinases (Homo sapiens, UniProt Q9Y572); conditions: read-out: % Enzyme Activity (relative to DMSO controls), kinase RIPK3; 5 uM
T5 construct: purchased Reaction Biology Corporation

[6] = target: T6, panel of 374 wild-type kinases (Homo sapiens, UniProt Q9HC98); conditions: read-out: % Enzyme Activity (relative to DMSO controls), NEK6
T6 construct: purchased Reaction Biology Corporation

[7] = target: T7, panel of 374 wild-type kinases (Homo sapiens, UniProt P48730); conditions: read-out: % Enzyme Activity (relative to DMSO controls), CK1d
T7 construct: purchased Reaction Biology Corporation

[8] = target: T8, panel of 374 wild-type kinases (Homo sapiens, UniProt P11362); conditions: read-out: % Enzyme Activity (relative to DMSO controls), FGFR1
T8 construct: purchased Reaction Biology Corporation

[9] = target: T9, panel of 374 wild-type kinases (Homo sapiens, UniProt P57078); conditions: read-out: % Enzyme Activity (relative to DMSO controls), kinase RIPK4
T9 construct: purchased Reaction Biology Corporation
T9 sequence (P57078 1-832): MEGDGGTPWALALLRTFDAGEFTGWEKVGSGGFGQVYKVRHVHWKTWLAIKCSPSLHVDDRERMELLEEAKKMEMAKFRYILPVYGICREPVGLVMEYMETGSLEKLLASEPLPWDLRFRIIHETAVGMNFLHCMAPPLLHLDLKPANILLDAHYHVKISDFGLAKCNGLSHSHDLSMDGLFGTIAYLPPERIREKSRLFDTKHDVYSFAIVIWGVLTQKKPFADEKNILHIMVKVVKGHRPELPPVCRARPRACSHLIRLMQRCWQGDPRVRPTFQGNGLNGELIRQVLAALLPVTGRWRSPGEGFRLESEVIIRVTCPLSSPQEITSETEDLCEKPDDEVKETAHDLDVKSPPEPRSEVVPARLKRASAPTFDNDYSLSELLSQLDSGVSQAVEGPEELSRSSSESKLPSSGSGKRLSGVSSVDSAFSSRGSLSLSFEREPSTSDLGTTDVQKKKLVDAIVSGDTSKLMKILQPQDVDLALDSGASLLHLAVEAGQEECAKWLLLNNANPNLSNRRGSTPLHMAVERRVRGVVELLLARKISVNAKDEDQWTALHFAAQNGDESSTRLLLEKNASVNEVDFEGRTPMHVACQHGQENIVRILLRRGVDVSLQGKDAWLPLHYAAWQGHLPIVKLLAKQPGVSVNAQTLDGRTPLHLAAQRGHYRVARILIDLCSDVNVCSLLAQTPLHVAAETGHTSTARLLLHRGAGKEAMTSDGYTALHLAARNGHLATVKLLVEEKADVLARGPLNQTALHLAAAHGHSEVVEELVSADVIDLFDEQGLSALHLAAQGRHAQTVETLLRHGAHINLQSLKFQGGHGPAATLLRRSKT

[10] = target: T10, panel of 374 wild-type kinases (Homo sapiens, UniProt O15111); conditions: read-out: % Enzyme Activity (relative to DMSO controls), IKKa/CHUK
T10 construct: purchased Reaction Biology Corporation

[11] = target: T11, panel of 374 wild-type kinases (Homo sapiens, UniProt O60307); conditions: read-out: % Enzyme Activity (relative to DMSO controls), MAST3
T11 construct: purchased Reaction Biology Corporation

[12] = target: T12, panel of 374 wild-type kinases (Homo sapiens, UniProt P68400); conditions: CK2a, read-out: % Enzyme Activity (relative to DMSO controls)
T12 construct: purchased Reaction Biology Corporation
T12 sequence (P68400 whole entry): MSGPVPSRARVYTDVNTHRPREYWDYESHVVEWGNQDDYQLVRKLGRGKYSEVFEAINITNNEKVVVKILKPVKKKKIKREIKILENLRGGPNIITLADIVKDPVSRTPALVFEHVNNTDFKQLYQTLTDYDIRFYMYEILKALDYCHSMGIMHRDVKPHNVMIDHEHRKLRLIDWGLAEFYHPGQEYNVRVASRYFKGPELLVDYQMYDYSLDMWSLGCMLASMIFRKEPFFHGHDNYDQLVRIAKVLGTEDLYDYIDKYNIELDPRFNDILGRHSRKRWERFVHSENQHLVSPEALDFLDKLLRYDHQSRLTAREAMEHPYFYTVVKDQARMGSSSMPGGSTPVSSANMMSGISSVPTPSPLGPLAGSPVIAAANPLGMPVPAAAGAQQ

T7 sequence (P48730 whole entry): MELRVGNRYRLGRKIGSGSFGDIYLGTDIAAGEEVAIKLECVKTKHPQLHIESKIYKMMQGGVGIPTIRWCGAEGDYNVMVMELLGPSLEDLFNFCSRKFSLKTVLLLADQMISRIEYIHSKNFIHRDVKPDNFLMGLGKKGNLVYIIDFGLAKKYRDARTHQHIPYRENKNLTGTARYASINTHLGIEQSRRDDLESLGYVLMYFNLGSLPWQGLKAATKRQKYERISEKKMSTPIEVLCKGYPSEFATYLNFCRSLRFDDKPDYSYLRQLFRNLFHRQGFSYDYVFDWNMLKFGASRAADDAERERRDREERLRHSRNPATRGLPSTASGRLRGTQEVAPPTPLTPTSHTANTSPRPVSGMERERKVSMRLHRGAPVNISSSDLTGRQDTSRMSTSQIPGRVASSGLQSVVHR
T1 sequence (P50613 whole entry): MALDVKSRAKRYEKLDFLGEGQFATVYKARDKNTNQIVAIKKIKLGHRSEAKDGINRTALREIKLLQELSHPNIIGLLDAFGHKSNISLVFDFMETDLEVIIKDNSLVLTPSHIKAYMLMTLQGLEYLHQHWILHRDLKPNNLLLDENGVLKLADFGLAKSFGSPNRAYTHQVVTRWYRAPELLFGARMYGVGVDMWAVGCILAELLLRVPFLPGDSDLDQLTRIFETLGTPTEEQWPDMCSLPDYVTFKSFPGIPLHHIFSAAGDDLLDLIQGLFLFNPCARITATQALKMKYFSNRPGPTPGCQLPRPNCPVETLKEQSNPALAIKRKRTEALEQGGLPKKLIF
T3 sequence (Q96S53 whole entry): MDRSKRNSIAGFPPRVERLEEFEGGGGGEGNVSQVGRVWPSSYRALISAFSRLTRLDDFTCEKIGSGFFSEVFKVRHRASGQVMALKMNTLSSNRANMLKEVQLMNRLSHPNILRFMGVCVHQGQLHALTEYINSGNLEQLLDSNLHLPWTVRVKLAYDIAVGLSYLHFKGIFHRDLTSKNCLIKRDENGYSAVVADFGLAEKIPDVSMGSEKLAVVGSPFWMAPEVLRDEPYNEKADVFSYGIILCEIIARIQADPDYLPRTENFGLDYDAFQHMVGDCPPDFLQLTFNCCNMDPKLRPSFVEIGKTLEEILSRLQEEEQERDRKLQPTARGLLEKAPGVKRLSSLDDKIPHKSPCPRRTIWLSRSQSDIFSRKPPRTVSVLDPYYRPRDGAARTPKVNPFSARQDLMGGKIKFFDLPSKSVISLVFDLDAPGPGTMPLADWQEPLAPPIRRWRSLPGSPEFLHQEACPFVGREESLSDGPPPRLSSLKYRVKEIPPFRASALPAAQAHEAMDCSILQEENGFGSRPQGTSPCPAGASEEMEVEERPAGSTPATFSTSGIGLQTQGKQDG
T6 sequence (Q9HC98 whole entry): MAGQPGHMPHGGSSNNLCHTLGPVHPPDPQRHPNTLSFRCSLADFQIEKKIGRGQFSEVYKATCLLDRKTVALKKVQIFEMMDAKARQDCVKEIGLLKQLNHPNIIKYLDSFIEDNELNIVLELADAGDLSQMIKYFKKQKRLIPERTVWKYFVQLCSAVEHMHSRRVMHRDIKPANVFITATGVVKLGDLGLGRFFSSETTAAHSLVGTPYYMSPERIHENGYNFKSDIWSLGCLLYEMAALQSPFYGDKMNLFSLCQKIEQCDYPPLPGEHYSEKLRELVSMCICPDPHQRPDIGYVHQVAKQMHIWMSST
T8 sequence (P11362 22-822): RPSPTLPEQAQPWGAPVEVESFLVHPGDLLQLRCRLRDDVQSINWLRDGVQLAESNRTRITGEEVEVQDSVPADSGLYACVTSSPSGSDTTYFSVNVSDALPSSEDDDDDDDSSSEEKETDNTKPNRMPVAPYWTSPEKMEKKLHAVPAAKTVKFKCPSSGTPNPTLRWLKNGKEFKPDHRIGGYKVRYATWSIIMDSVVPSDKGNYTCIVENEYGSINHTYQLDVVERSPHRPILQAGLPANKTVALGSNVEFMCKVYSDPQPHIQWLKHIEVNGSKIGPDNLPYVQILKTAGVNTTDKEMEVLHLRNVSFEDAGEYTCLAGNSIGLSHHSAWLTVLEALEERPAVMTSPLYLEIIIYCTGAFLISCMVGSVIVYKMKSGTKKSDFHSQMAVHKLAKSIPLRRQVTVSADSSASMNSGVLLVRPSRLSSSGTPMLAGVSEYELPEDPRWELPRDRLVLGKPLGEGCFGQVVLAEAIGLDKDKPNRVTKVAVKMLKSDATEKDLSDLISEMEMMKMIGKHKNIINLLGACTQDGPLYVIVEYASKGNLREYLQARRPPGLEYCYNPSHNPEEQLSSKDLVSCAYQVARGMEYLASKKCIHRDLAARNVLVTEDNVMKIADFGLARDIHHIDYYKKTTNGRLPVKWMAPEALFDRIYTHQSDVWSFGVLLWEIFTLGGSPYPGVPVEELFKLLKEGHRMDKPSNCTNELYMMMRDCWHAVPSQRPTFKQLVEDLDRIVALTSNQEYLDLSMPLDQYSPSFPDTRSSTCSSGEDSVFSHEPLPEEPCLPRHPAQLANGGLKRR
T10 sequence (O15111 whole entry): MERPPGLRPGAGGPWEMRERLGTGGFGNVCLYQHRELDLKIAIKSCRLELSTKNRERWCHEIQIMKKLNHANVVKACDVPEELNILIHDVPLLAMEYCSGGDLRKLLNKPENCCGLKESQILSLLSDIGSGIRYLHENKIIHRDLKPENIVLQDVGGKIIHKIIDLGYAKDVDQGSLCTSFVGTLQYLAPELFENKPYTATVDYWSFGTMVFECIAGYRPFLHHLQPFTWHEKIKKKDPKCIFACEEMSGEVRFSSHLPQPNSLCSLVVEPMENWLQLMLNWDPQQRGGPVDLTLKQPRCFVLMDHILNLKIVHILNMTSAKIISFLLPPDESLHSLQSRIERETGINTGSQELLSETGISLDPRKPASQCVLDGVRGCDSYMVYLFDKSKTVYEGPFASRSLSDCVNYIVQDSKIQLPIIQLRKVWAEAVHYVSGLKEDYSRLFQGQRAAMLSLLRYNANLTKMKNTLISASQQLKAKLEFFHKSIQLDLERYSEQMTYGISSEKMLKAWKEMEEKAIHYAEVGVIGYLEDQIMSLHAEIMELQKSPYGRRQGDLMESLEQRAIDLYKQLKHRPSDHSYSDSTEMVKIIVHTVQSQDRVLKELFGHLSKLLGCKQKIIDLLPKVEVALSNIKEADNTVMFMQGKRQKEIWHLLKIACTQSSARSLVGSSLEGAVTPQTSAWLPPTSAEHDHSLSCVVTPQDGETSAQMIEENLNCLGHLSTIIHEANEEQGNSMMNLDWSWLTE
T11 sequence (O60307 whole entry): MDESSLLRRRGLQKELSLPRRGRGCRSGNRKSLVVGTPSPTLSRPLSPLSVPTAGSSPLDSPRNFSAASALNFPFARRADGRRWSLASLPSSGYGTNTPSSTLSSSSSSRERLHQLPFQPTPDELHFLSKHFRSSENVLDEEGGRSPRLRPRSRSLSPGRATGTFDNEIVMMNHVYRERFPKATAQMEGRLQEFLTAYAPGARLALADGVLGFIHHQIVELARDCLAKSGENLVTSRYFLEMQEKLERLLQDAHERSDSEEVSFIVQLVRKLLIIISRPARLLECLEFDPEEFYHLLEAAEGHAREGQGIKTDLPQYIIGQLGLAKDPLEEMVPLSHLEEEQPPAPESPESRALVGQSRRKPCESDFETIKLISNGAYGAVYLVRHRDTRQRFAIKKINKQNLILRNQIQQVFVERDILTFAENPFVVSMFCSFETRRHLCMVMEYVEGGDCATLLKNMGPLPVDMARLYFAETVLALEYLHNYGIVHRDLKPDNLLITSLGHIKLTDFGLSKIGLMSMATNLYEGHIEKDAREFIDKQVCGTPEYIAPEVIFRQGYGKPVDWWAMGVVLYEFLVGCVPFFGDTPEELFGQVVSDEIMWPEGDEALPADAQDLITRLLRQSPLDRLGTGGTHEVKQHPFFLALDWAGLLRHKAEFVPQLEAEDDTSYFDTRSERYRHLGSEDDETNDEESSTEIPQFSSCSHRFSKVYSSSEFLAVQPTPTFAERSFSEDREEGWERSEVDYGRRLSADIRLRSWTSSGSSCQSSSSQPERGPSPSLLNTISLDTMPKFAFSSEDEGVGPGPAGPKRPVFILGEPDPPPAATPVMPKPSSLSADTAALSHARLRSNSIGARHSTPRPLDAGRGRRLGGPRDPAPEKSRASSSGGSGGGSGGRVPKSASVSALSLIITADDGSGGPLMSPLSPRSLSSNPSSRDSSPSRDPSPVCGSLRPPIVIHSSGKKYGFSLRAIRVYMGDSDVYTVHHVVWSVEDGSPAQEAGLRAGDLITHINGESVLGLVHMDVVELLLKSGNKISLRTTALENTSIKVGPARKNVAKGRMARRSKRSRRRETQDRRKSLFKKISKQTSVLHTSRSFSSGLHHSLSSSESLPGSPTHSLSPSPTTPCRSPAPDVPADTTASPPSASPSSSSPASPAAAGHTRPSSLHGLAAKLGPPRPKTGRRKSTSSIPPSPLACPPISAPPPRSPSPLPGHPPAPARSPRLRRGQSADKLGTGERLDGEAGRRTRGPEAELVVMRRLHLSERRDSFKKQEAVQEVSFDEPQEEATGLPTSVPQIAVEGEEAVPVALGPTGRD

`O=C(Nc1cnn(-c2csc(C(=O)NC3COC3)c2)c1)Nc1ccccc1Cl` [Compound 17, 4-(4-(3-(2-chlorophenyl)ureido)-1H-pyrazol-1-yl)-N-(oxetan-3-yl)thiophene-2-carboxamide] gave a remaining activity at 5 µM [1] of 99.7%, a remaining activity at 5 µM [2] of 96.4% and a remaining activity at 5 µM [3] of 93.3%. It also gave a remaining activity at 5 µM [4] of 104%, a remaining activity at 5 µM [5] of 101% and a remaining activity at 5 µM [6] of 103%. It also gave a remaining activity at 5 µM [7] of 101%, a remaining activity at 5 µM [8] of 98.5% and a remaining activity at 5 µM [9] of 89.2%.
Compound `O=C(Nc1cnn(-c2csc(C(=O)NC3COC3)c2)c1)Nc1c(F)cccc1Cl` [Compound 25, 4-(4-(3-(2-chloro-6-fluorophenyl)ureido)-1H-pyrazol-1-yl)-N-(oxetan-3-yl)thiophene-2-carboxamide] has a remaining activity at 5 µM [1] of 95.8%, a remaining activity at 5 µM [2] of 94% and a remaining activity at 5 µM [3] of 80.1%. For the same compound, the remaining activity at 5 µM [4] was 96.2%, the remaining activity at 5 µM ([10]; 5 uM) was 108% and the remaining activity at 5 µM [5] was 97.5%. For the same compound, the remaining activity at 5 µM ([11]; 5 uM) was 108%, the remaining activity at 5 µM [6] was 87.2% and the remaining activity at 5 µM ([12]; 5 uM) was 90.5%. For the same compound, the remaining activity at 5 µM [7] was 117%, the remaining activity at 5 µM [8] was 93.2% and the remaining activity at 5 µM [9] was 96.7%.
With `Cc1sc(C(=O)NC2COC2)cc1-n1cc(NC(=O)Nc2c(F)cccc2Cl)cn1` [Compound 27, 4-(4-(3-(2-chloro-6-fluorophenyl)ureido)-1H-pyrazol-1-yl)-5-methyl-N-(oxetan-3-yl)thiophene-2-carboxamide] the remaining activity at 10 µM ([1]; 10 uM) was 103%, the remaining activity at 10 µM ([2]; GRK7, 10 uM, read-out: % Enzyme Activity (relative to DMSO controls)) was 98.3% and the remaining activity at 10 µM ([3]; 10 uM) was 99.2%. The remaining activity at 10 µM ([4]; 10 uM) was 88%, the remaining activity at 10 µM ([10]; 10 uM) was 101% and the remaining activity at 10 µM ([11]; 10 uM) was 96.7%. It also gave a remaining activity at 10 µM ([6]; 10 uM) of 93.3%, a remaining activity at 10 µM ([12]; 10 uM) of 97% and a remaining activity at 10 µM ([7]; 10 uM) of 112%. It also gave a remaining activity at 10 µM ([8]; 10 uM) of 114% and a remaining activity at 10 µM ([9]; 10 uM) of 103%.

Reference: patent US20240246942A1, “KINASE INHIBITORS FOR THE TREATMENT OF NEURODEGENERATIVE DISEASES” (priority 2020, published 2024)
